The values below come from patent US20210346394A1, “Remyelination Therapy” (The Regents of the University of California, priority 2016, published 2021).

In assay [1] the test system is demyelinated lesion in corpus callosum. The assay is described as follows: Lysolecithin-induced demyelination of the corpus callosum. To be noted: mice, 10 mg/kg for 7 days after lysolecithin, 10 days post injection, vs vehicle. Type of assay: in vivo. The procedure: Example 5. Effects of BZA on OPC Differentiation. Lysolecithin was injected in the corpus callosum of mice and analyzed at 6 days after injection, showing a demyelinated lesion area. Mice were treated with either BZA (10 mg/kg) or vehicle control for 7 days after injection of lysolecithin. Mice were euthanized at 10 days post injection and brains were sectioned and immunostained for myelin oligodendrocyte glycoprotein peptide (MOG), Adenomatous polyposis coli (APC-a maker of mature oligodendrocytes) and Olig2. Quantification of APC-positive cells indicated a 2-fold increase in remyelination in the corpus callosum after treatment with BZA, as depicted in FIG. 3.
Example 6. BZA effects on remyelination kinetics. Toxic, focal demyelinating injury was induced in the corpus callosum of 8-week old adult mice the rate and extent of remyelination was assessed, using previously described methodology. Demyelination was induced by injecting 1 μl of 1% solution of lysolecithin. Essential to this demyelinating model is the timeline for repair, comprising active demyelination [1-3 days post lesion (dpl)], OPC recruitment (3-7 dpl, peaking at 5 dpl), oligodendrocyte differentiation (7-10 dpl) and active remyelination (14-21 dpl). Oligodendrocyte differentiation and remyelination at 10 dpl was analyzed, allowing assessment of BZA effects on the kinetics of myelin repair. […]

Assay [2] deals with OPCs derived from WT P7 rat pups. The experiment in a line: Differentiation of isolated OPCs treated with SERMs (MBP/PDGFRα/DAPI immunostaining). Type of assay: cell-based. To be noted: 500 nM for 48 hours. On the procedure: Example 3. OPC Differentiation. To assess the effect of selected SERMs on myelination, OPCs were derived from WT P7 rat pups using previously validated methodology, cultured in isolation, and treated with a select group of SERMs at a preliminary concentration of 500 nM for 48 hours. Cells were then permeabilized and immunostained for MBP (oligodendrocytes), PDGFRα (OPCs), and DAPI (cell bodies).

Take `Cc1c(-c2ccc(O)cc2)n(Cc2ccc(OCCN3CCCCCC3)cc2)c2ccc(O)cc12` [BZA, bazedoxifene]: the “increase in remyelination (APC-positive cells) in the corpus callosum” value in assay [1] is listed as 2 fold.

Turning to `N#CC(Cc1ccc(O)cc1)c1ccc(O)cc1` (stereo not drawn) [2,3-bis(4-hydroxyphenyl)-propionitrile], the OPC differentiation result in assay [2] is recorded as “significantly enhanced OPC differentiation”.

As for `CC/C(=C(\c1ccccc1)c1ccc(OCCN(C)C)cc1)c1ccccc1` [tamoxifen], the OPC differentiation entry in assay [2] is on record as “significantly enhanced OPC differentiation”.
